Results on 1 cell line are retold here after the supplement of paper PMC10307832.

Holding throughout (assay): relative viability (nuclei count vs DMSO), 5 days (fraction); higher = more cells survive
Compound in the assay “Ponatinib + Tozasertib”: Cc1ccc(C(=O)Nc2ccc(CN3CCN(C)CC3)c(C(F)(F)F)c2)cc1C#Cc1cnc2cccnn12 [Ponatinib] + Cc1cc(Nc2cc(N3CCN(C)CC3)nc(Sc3ccc(NC(=O)C4CC4)cc3)n2)n[nH]1 [Tozasertib] (partner 0.1 µM)
In short, it runs like this: (§1)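 Lung cancer cell lines, seeded in 1536-well plates, were treated the following day by pin tool with a single drug or with five library-drug doses (not always all listed) in √10 steps on top of a fixed anchor-drug dose. Cells were fixed and nuclei stained in one step after 5 days, and nuclei were counted. Relative viability is the nuclei count for treated wells divided by that for vehicle wells, reported as medians of duplicate plates.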

Compound in the assay “Ponatinib + Palbociclib”: Cc1ccc(C(=O)Nc2ccc(CN3CCN(C)CC3)c(C(F)(F)F)c2)cc1C#Cc1cnc2cccnn12 [Ponatinib] + CC(=O)c1c(C)c2cnc(Nc3ccc(N4CCNCC4)cn3)nc2n(C2CCCC2)c1=O [Palbociclib] (partner 0.5 µM)
In short, it runs like this:
as §1

Compound in a further assay: Cc1ccc(Nc2nccc(N(C)c3ccc4c(C)n(C)nc4c3)n2)cc1S(N)(=O)=O [Pazopanib]
In short, it runs like this:
(§2)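 Acceptance criteria were a control CV below 25% and at least one doubling per plate. Lung cancer cell lines in 1536-well plates got five library-drug doses (not always all listed) √10 apart by pinning and were left 5 days with no medium change. Viability divides treated-well nuclei by vehicle-well nuclei and is the median across plates. Nuclei were counted by MetaXpress from 4× Hoechst images.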

Compound in another assay: Cc1ccc(C(=O)Nc2ccc(CN3CCN(C)CC3)c(C(F)(F)F)c2)cc1C#Cc1cnc2cccnn12 [Ponatinib]
In short, it runs like this:
as §2

In the case of UMC-11, the relative viability was 0.193 with Ponatinib + Tozasertib (first compound 0.002 µM); 0.223 in the assay with Ponatinib + Tozasertib (first compound 0.006325 µM); 0.209 with Ponatinib + Tozasertib (first compound 0.06325 µM); 0.217 with Ponatinib + Tozasertib (first compound 0.2 µM); 0.312 in the assay with Ponatinib + Palbociclib (first compound 0.006325 µM); 0.287 with Ponatinib + Palbociclib (first compound 0.06325 µM). The relative viability was 0.346 with Ponatinib + Palbociclib (first compound 0.2 µM); 0.828 in the assay with Pazopanib (0.01 µM); 1.01 with Pazopanib (0.03162 µM); 1.01 with Pazopanib (0.1 µM); 1.03 in the assay with Pazopanib (0.3162 µM); 1.11 with Pazopanib (1 µM). Also, the relative viability with Ponatinib (0.002 µM) came out at 0.914; in the assay with Ponatinib (0.006325 µM), 0.945; in the assay with Ponatinib (0.06325 µM), 1.07; in the assay with Ponatinib (0.2 µM), 0.99.
